{
  "source": "patent US12583823B2",
  "about": "“Crystal form of Daprodustat, preparation method therefor and use thereof” (priority 2019, dated 2026)",
  "test": "Saturation solubility in water (HPLC)",
  "type": "physicochemical",
  "conditions": "for Saturation solubility: stirring at room temperature for 12 h, HPLC",
  "excerpt": "Test product: the crystal form M, crystal form CS1, crystal form CS9 and crystal form K of the compound of the formula (I), preparation methods thereof being respectively shown in Example 1, Comparative example 1, Comparative example 2 and Comparative example 3.\nThe operating conditions of HPLC were as follows: • Instrument: high performance liquid chromatograph (model: Thermo U3000) • Chromatographic column: Agilent C18 column (5 μm, 150 mm×4.6 mm) • Mobile phase composition and gradient elution procedure:\n• Detection wavelength: 260.4 nm • Flow rate: 1 mL/min • Injection volume: 15 μL • Column temperature: 30° C.",
  "data": [
    {"compound": "O=C(O)CNC(=O)C1C(=O)N(C2CCCCC2)C(=O)N(C2CCCCC2)C1=O", "note": "[Crystal form CS1, N-[(1,3-dicyclohexylhexahydro-2,4,6-trioxo-5-pyrimidinyl)carbonyl]glycine, reference compound]", "values": [
      {"measurement": "Saturation solubility", "result": 24.48, "unit": "µg/mL"}
    ]},
    {"compound": "O=C(O)CNC(=O)C1C(=O)N(C2CCCCC2)C(=O)N(C2CCCCC2)C1=O", "note": "[Crystal form CS9, N-[(1,3-dicyclohexylhexahydro-2,4,6-trioxo-5-pyrimidinyl)carbonyl]glycine, reference compound]", "values": [
      {"measurement": "Saturation solubility", "result": 19.4, "unit": "µg/mL"}
    ]},
    {"compound": "O=C(O)CNC(=O)C1C(=O)N(C2CCCCC2)C(=O)N(C2CCCCC2)C1=O", "note": "[Crystal form M, N-[(1,3-dicyclohexylhexahydro-2,4,6-trioxo-5-pyrimidinyl)carbonyl]glycine]", "values": [
      {"measurement": "Saturation solubility compared with those of the crystal form K, the crystal form CS1 and the crystal form CS9", "setting": "result in words", "result": "significantly higher"},
      {"measurement": "Saturation solubility", "result": 42.47, "unit": "µg/mL"}
    ]},
    {"compound": "O=C(O)CNC(=O)C1C(=O)N(C2CCCCC2)C(=O)N(C2CCCCC2)C1=O", "note": "[Crystal form K, N-[(1,3-dicyclohexylhexahydro-2,4,6-trioxo-5-pyrimidinyl)carbonyl]glycine]", "values": [
      {"measurement": "Saturation solubility", "result": 23.36, "unit": "µg/mL"}
    ]}
  ]
}
